Experimental data reported in ChEMBL document CHEMBL3272336, “Potential histidine decarboxylase inhibitors. 1. alpha- and beta-substituted histidine analogues” (J Med Chem, 1977).
Active and inactive are the calls of the source. No cut-off for these calls is given here.

How the values were obtained:
[1] = target: T1, Histidine decarboxylase (Rattus norvegicus) (UniProt P16453); assay: Inhibition of histidine decarboxylase in rat pyloric stomach using [carboxyl-14C]-histidine as substrate at 10^-3 M by 14CO2 trapping assay relative to control; type: tissue-based
T1 sequence (whole entry): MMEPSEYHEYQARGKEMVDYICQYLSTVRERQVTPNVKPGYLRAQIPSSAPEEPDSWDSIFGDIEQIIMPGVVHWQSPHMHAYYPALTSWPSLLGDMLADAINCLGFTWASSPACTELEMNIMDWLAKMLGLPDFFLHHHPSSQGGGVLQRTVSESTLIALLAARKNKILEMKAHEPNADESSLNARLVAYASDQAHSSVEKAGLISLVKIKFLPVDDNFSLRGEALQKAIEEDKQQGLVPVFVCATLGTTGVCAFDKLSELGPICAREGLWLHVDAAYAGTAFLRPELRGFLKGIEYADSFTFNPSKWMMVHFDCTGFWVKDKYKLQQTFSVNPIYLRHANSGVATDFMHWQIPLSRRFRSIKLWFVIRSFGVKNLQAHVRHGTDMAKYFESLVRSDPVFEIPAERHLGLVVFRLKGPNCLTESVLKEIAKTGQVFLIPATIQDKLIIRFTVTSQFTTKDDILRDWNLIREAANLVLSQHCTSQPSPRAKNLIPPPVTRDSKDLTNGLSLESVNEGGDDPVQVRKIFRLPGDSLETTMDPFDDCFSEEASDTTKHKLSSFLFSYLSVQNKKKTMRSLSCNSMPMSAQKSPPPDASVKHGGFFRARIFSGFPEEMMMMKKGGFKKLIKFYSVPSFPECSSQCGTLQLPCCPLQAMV

[2] = target: T1, Histidine decarboxylase (Rattus norvegicus); assay: Inhibition of histidine decarboxylase in rat pyloric stomach using [carboxyl-14C]-histidine as substrate at 10^-4 M by 14CO2 trapping assay relative to control; type: tissue-based

SMILES	inhibition [1] [%]	inhibition [2]
CC[C@](N)(Cc1c[nH]cn1)C(=O)O	14	6%
C[C@](N)(Cc1c[nH]cn1)C(=O)O	40	30%
CCCC[C@](N)(Cc1c[nH]cn1)C(=O)O	0	–
N[C@@]1(Cc2c[nH]cn2)CCOC1=O	19	12%

Second part, the compound after the results:

inhibition [1] [%]	inhibition [2]	SMILES
0	–	NC(CCc1c[nH]cn1)C(=O)O (configuration not stated)
1	0%	CC(C)[C@](N)(Cc1c[nH]cn1)C(=O)O
0	–	CC(C)(c1c[nH]cn1)[C@H](N)C(=O)O
–	inactive	CC(c1c[nH]cn1)[C@H](N)C(=O)O (some centres not stated)
